Patent US12391692B2, “Spiro ring-containing quinazoline compound” (WIGEN BIOMEDICINE TECHNOLOGY (SHANGHAI) CO., LTD., priority 2020, dated 2025)

What was measured:
[1] = tested on: pERK level in H358 cells; test: pERK and ERK protein content assay in H358 cells (ELISA); format: cell-based; settings: Homo sapiens, NCI-H358, pERK/ERK ratio vs DMSO group, compound 1 μM, 24 h, read-out: Inhibition rate (%)
Method: H358 cells were seeded in a 24-well plate. After one day of growth, a test compound (at a concentration of 1 μM) was added. After 24 h of action of the compound, the cells were lysed, and the cell lysate was transferred to a 96-well ELISA plate. The levels of pERK and ERK in the lysate were measured using an ELISA kit (abcam 176660). The ratio of pERK to ERK was calculated and compared with that of the DMSO group, and the percentage of inhibition of pERK activity by the compound was calculated.

[2] = tested on: H358 cells; test: Antiproliferative activity against H358 cells (Cell Titer Glow, ultra-low attachment plate); format: cell-based; settings: Homo sapiens, NCI-H358, 72 h, three days after addition of compound
Method: 2500 H358 cells were seeded in a 96-well ultra-low attachment plate (corning, 7007). After one day of growth, a serially diluted compound (a maximum concentration of 5 μM, 5-fold dilution, a total of five doses) was added. Three days after the addition of the compound, Cell Titer Glow (Promega, G9681) was added to evaluate pellet growth, and the IC50 value was calculated.

SMILES	inhibition at 1 µM [1] [%]	IC50 [2] [nM]
C=CC(=O)N1CC2(CCN(c3nc(N4CC(COC)C4)nc4c(OCC(F)(F)F)c(-c5c(C)ccc6[nH]ncc56)c(C5CC5)cc34)CC2)C1 [Compound 9]	> 90	< 300
C=CC(=O)N1CC2(CCN(c3nc(N4CCC5(CCCN5CCOC)CC4)nc4c(OCC(F)(F)F)c(-c5c(C)ccc6[nH]ncc56)c(C5CC5)cc34)CC2)C1 [Compound 80]	50 to 90	300 to 1000
C=CC(=O)N1CC2(CCN(c3nc(N4CC(N5CC[C@H](O)C5)C4)nc4c(OCC(F)(F)F)c(-c5c(C)ccc6[nH]ncc56)c(C5CC5)cc34)CC2)C1 [Compound 45]	> 90	< 300
C=CC(=O)N1CC2(CCN(c3nc(O[C@H]4C[C@H](N5CC6(CC6)C5)C4)nc4c(OCC(F)(F)F)c(-c5c(C)ccc6[nH]ncc56)c(C5CC5)cc34)CC2)C1 [Compound 94]	50 to 90	300 to 1000
C=CC(=O)N1CC2(CCN(c3nc(N4CC(C)(N5CCCC5)C4)nc4c(OCC(F)(F)F)c(-c5c(C)ccc6[nH]ncc56)c(C5CC5)cc34)CC2)C1 [Compound 61]	> 90	< 300
C=CC(=O)N1CC2(CCN(c3nc(N4CC5(CCCCN5C)C4)nc4c(OCC(F)(F)F)c(-c5c(C)ccc6[nH]ncc56)c(C5CC5)cc34)CC2)C1 [Compound 75]	50 to 90	300 to 1000
C=CC(=O)N1CC2(CCN(c3nc(N4CCOC5(CN(C)C5)C4)nc4c(OCC(F)(F)F)c(-c5c(C)ccc6[nH]ncc56)c(C5CC5)cc34)CC2)C1 [Compound 83]	50 to 90	300 to 1000
C=CC(=O)N1CC2(CCN(c3nc(N4CC(N(CC)CCCO)C4)nc4c(OCC(F)(F)F)c(-c5c(C)ccc6[nH]ncc56)c(C5CC5)cc34)CC2)C1 [Compound 24]	> 90	< 300
C=CC(=O)N1CC2(CCN(c3nc(N4CC(N5CC=CCC5)C4)nc4c(OCC(F)(F)F)c(-c5c(C)ccc6[nH]ncc56)c(C5CC5)cc34)CC2)C1 [Compound 43]	50 to 90	> 1000
C=CC(=O)N1CC2(CCN(c3nc(N4CC(N5CCC6(CC6)C5)C4)nc4c(OCC(F)(F)F)c(-c5c(C)ccc6[nH]ncc56)c(CC)cc34)CC2)C1 [Compound 114]	> 90	< 300
C=CC(=O)N1CC2(CCN(c3nc(N4CC5(CCCN5CCF)C4)nc4c(OCC(F)(F)F)c(-c5c(C)ccc6[nH]ncc56)c(C5CC5)cc34)CC2)C1 [Compound 118]	> 90	< 300
C=CC(=O)N1CC2(CCN(c3nc(N4CCC(N5CC6(CC6)C5)C4)nc4c(OCC(F)(F)F)c(-c5c(C)ccc6[nH]ncc56)c(C5CC5)cc34)CC2)C1 (stereo not shown) [Compound 37]	> 90	< 300
C=CC(=O)N1CC2(CCN(c3nc(N4CC(OC5CCN(C)CC5)C4)nc4c(OCC(F)(F)F)c(-c5c(C)ccc6[nH]ncc56)c(C5CC5)cc34)CC2)C1 [Compound 15]	> 90	< 300
C=CC(=O)N1CC2(CCN(c3nc(N4CCC5(CCCN5C)CC4)nc4c(OCC(F)(F)F)c(-c5c(C)ccc6[nH]ncc56)c(C5CC5)cc34)CC2)C1 [Compound 79]	> 90	< 300
C=CC(=O)N1CC2(CCN(c3nc(N4CC5(CCN5CC(F)(F)F)C4)nc4c(OCC(F)(F)F)c(-c5c(C)ccc6[nH]ncc56)c(C5CC5)cc34)CC2)C1 [Compound 68]	> 90	< 300
C=CC(=O)N1CC2(CCN(c3nc(N4CC(S(=O)(=O)N5CC(N(C)C)C5)C4)nc4c(OCC(F)(F)F)c(-c5c(C)ccc6[nH]ncc56)c(C5CC5)cc34)CC2)C1 [Compound 50]	50 to 90	300 to 1000
C=CC(=O)N1CC2(CCN(c3nc(N4CC(OCC5CC5)C4)nc4c(OCC(F)(F)F)c(-c5c(C)ccc6[nH]ncc56)c(C5CC5)cc34)CC2)C1 [Compound 17]	> 90	< 300
C=CC(=O)N1CC2(CCN(c3nc(N4CC(N5CC6(CC6)C5)C4)nc4c(OCC(F)F)c(-c5c(C)ccc6[nH]ncc56)c(C5CC5)cc34)CC2)C1 [Compound 98]	> 90	< 300
C=CC(=O)N1CC2(CCN(c3nc(N4CC5(CCN5CC5CC5)C4)nc4c(OCC(F)(F)F)c(-c5c(C)ccc6[nH]ncc56)c(C5CC5)cc34)CC2)C1 [Compound 69]	> 90	< 300
C=CC(=O)N1CC2(CCN(c3nc(N4CC5(CCN5CCOC)C4)nc4c(OCC(F)(F)F)c(-c5c(C)ccc6[nH]ncc56)c(C5CC5)cc34)CC2)C1 [Compound 72]	> 90	< 300
C=CC(=O)N1CC2(CCN(c3nc(N4CC(N5CCS(=O)(=O)CC5)C4)nc4c(OCC(F)(F)F)c(-c5c(C)ccc6[nH]ncc56)c(C5CC5)cc34)CC2)C1 [Compound 27]	50 to 90	300 to 1000

SMILES	inhibition at 1 µM [1] [%]	IC50 [2] [nM]
C=CC(=O)N1CC2(CCN(c3nc(N4CC5(CCN5C5COC5)C4)nc4c(OCC(F)(F)F)c(-c5c(C)ccc6[nH]ncc56)c(C5CC5)cc34)CC2)C1 [Compound 71]	> 90	< 300
C=CC(=O)N1CC2(CCN(c3nc(N4CC(CN(C)CCOC)C4)nc4c(OCC(F)(F)F)c(-c5c(C)ccc6[nH]ncc56)c(C5CC5)cc34)CC2)C1 [Compound 5]	> 90	< 300
C=CC(=O)N1CC2(CCN(c3nc(O[C@H]4C[C@@H](N5CCC5)C4)nc4c(OCC(F)(F)F)c(-c5c(C)ccc6[nH]ncc56)c(C5CC5)cc34)CC2)C1 [Compound 87]	> 90	< 300
C=CC(=O)N1CC2(CCN(c3nc(N4CC(N5CC6(CC6)C5)C4)nc4c(OCC(F)(F)F)c(-c5c(C)ccc6[nH]nc(C)c56)c(C5CC5)cc34)CC2)C1 [Compound 106]	> 90	< 300
C=CC(=O)N1CC2(CCN(c3nc(N4CC(OC5CC5)C4)nc4c(OCC(F)(F)F)c(-c5c(C)ccc6[nH]ncc56)c(C5CC5)cc34)CC2)C1 [Compound 12]	> 90	< 300
C=CC(=O)N1CC2(CCN(c3nc(N4CC5(CCC5)C4)nc4c(OCC(F)(F)F)c(-c5c(C)ccc6[nH]ncc56)c(C5CC5)cc34)CC2)C1 [Compound 66]	50 to 90	300 to 1000
C=CC(=O)N1CC2(CCN(c3nc(N4CC5(CCCN5C)C4)nc4c(OCC(F)(F)F)c(-c5c(C)ccc6[nH]ncc56)c(C5CC5)cc34)CC2)C1 [Compound 73]	> 90	< 300
C=CC(=O)N1CC2(CCN(c3nc(N4CC(OCC5CN(C)C5)C4)nc4c(OCC(F)(F)F)c(-c5c(C)ccc6[nH]ncc56)c(C5CC5)cc34)CC2)C1 [Compound 19]	> 90	< 300
C=CC(=O)N1CC2(CCN(c3nc(N4CC5(CN(C)CCO5)C4)nc4c(OCC(F)(F)F)c(-c5c(C)ccc6[nH]ncc56)c(C5CC5)cc34)CC2)C1 [Compound 81]	> 90	< 300
C=CC(=O)N1CC2(CCN(c3nc(O[C@H]4C[C@@H](N(C)C)C4)nc4c(OCC(F)(F)F)c(-c5c(C)ccc6[nH]ncc56)c(C5CC5)cc34)CC2)C1 [Compound 85]	> 90	< 300
C=CC(=O)N1CC2(CCN(c3nc(N4CC(N(CC)CCO)C4)nc4c(OCC(F)(F)F)c(-c5c(C)ccc6[nH]ncc56)c(C5CC5)cc34)CC2)C1 [Compound 22]	> 90	< 300
C=CC(=O)N1CC2(CCN(c3nc(N4CC(N5CC6(CC6)C5)C4)nc4c(OCC(F)(F)F)c(-c5c(C)ccc6[nH]ncc56)c(C=C)cc34)CC2)C1 [Compound 100]	> 90	< 300
C=CC(=O)N1CC2(CCN(c3nc(N4CC5(CCCN5C(C)C)C4)nc4c(OCC(F)(F)F)c(-c5c(C)ccc6[nH]ncc56)c(C5CC5)cc34)CC2)C1 [Compound 117]	> 90	< 300
C=CC(=O)N1CC2(CCN(c3nc(N4CC5(CCN5C5CCC5)C4)nc4c(OCC(F)(F)F)c(-c5c(C)ccc6[nH]ncc56)c(C5CC5)cc34)CC2)C1 [Compound 70]	> 90	< 300
C=CC(=O)N1CC2(CCN(c3nc(N4CC(N5CCC56CC6)C4)nc4c(OCC(F)(F)F)c(-c5c(C)ccc6[nH]ncc56)c(C5CC5)cc34)CC2)C1 [Compound 34]	> 90	< 300
C=CC(=O)N1CC2(CCN(c3nc(N4CC(N5CC6(CSC6)C5)C4)nc4c(OCC(F)(F)F)c(-c5c(C)ccc6[nH]ncc56)c(C5CC5)cc34)CC2)C1 [Compound 31]	> 90	< 300
C=CC(=O)N1CC2(CCN(c3nc(N4CC(N5CCSCC5)C4)nc4c(OCC(F)(F)F)c(-c5c(C)ccc6[nH]ncc56)c(C5CC5)cc34)CC2)C1 [Compound 25]	> 90	300 to 1000
C=CC(=O)N1CC2(CCN(c3nc(N4CC(N5CC6(CC6)C5)C4)nc4c(OCC(F)(F)F)c(-c5c(F)cccc5F)c(C5CC5)cc34)CC2)C1 [Compound 113]	50 to 90	300 to 1000
C=CC(=O)N1CC2(CCN(c3nc(O[C@H]4C[C@@H](N5CCC(F)(F)C5)C4)nc4c(OCC(F)(F)F)c(-c5c(C)ccc6[nH]ncc56)c(C5CC5)cc34)CC2)C1 [Compound 91]	> 90	< 300
C=CC(=O)N1CC2(CCN(c3nc(N4CC(CC#N)(N5CCC5)C4)nc4c(OCC(F)(F)F)c(-c5c(C)ccc6[nH]ncc56)c(C5CC5)cc34)CC2)C1 [Compound 54]	> 90	< 300
